Key:
Format in all cases: cell-based, mouse
β-TrCP-NRF2 interaction = assay: NRF2 levels after LY294002 (PI3K inhibition, GSK-3β activation) in Keap1−/− MEFs; settings: PHAR 10 μM 1 h, then LY294002 20 μM 15-240 min
NRF2 = assay: HO-1 induction in Nrf2−/− versus Nrf2+/+ MEFs
Description: FIG. 5. PHAR-mediated NRF2 activation is independent of KEAP1 and is responsible for the increase in the expression of its targets. (A-D) Serum-deprived MEFs originating from wild-type (WT) or KEAP1 null (Keap1−/−) mice were treated with 10 μM of PHAR for the indicated times. 0.1% DMSO was used as a vehicle. A), representative immunoblots of NRF2, HO1, KEAP1, LAMINB, and GAPDH as loading controls. B) and C), densitometric analysis of NRF2 and HO1 protein levels of the representative immunoblots of (A), expressed as a ratio of NRF2/LAMINB or HO1/GAPDH. The data is depicted as means±SEM (n=3). Statistical analysis was performed with two-way ANOVA followed by the Bonferroni test to check inter-group differences. D), the mRNA levels of Hmox-1, Nqo1, Aox1, Gc1c, and Gc1m were determined after 8 h of 10 μM PHAR by means of qRT-PCR and normalized by means of average Gapdh, Tbp, and β-actin. The data is depicted as mean±SEM (n=3). Statistical analysis was performed with two-way ANOVA followed by the Bonferroni test to check inter-group differences. *p<0.05; **p<0.01; ***p<0.001 vs. 0 of MEF-WT. (E-H), Serum-deprived MEFs from wild-type (WT) or NRF2 null (Nrf2−/−) mice were subjected to 10 μM of PHAR for the indicated times. 0.1% DMSO was used as a vehicle. E), representative immunoblots of NRF2, HO1, KEAP1, LAMINB, and GAPDH as loading controls. F) and G), densitometric analysis of NRF2 and HO1 protein levels of the representative immunoblots of (E), expressed as a ratio of NRF2/LAMINB or HO1/GAPDH. […] H), the mRNA levels of Hmox-1, Nqo1, Aox1, Gclc, and Gclm were determined after 8 h of 10 μM PHAR by means of qRT-PCR and normalized by means of average Gapdh, Tbp, and β-actin. […]
From a viewpoint of biopharmaceutical usefulness, it is important to determine if PHAR acts on KEAP1/NRF2 interaction, or if it represents, in contrast, a novel approach directed specifically at β-TrCP/NRF2 interaction. […] As an additional control, the HO-1 levels in MEFs originating from NRF2 knock-out (Nrf2^−/−) and wild-type (Nrf2^+/+) mice from the same litter were analyzed by immunoblot. […]

Raw264.7 cells = assay: Inflammatory response in LPS-stimulated Raw264.7 cells; settings: Raw264.7, PHAR 10 μM 8 h pretreatment
Description: FIG. 7. […] Serum-deprived Raw264.7 cells were pretreated with 10 μM of PHAR for 8 h. 0.1% DMSO was used as a vehicle. After that period of time, the cells were treated with 100 ng/ml of LPS for the indicated times. A), representative immunoblots of NRF2, HO1, p65, pre-IL1β, COX2, NOS2, and GAPDH as a loading control. The black arrow tip marks the specific band of p65 and NOS2. B), densitometric analysis of HO1 and NRF2 protein levels of the representative immunoblots of (A), expressed as a ratio of protein/GAPDH levels. The data is depicted as means±SEM (n=3). Statistical analysis was performed with two-way ANOVA followed by the Bonferroni test to compare inter-group differences. ***p<0.001 vs LPS. C), Densitometric analysis of pre-IL1β, COX2, and NOS2 protein levels of the representative immunoblots of (A), expressed as a ratio of protein/GAPDH levels. The data is depicted as means±SEM (n=3). Statistical analysis was performed with two-way ANOVA followed by the Bonferroni test to compare inter-group differences. ***p<0.001 vs. LPS. D) and E), the mRNA levels of Il1β, Cox2, Nos2, Il6, and Tnfα were determined by means of qRT-PCR and normalized by means of average Gapdh, Tbp, and β-actin. The data is depicted as mean±SEM (n=3). Statistical analysis was performed with two-way ANOVA followed by the Bonferroni test to check inter-group differences. ***p<0.001 vs. LPS. […] The cells were then stimulated with LPS (100 ng/ml, 1, 2, or 4 h) to trigger an inflammatory response.

For `O=C1[C@@H]2[C@H](Cc3c[nH]c4ccccc34)N[C@]3(C(=O)Nc4ccc(Cl)cc43)[C@@H]2C(=O)N1c1ccc2c(c1)OCCO2` [PHAR], the “NRF2 levels under LY294002 after PHAR pre-treatment” value (β-TrCP-NRF2 interaction) was “prevented LY294002-induced NRF2 degradation, but furthermore favored NRF2 accumulation”, the “HO-1 increase in MEFs from Nrf2−/− mice” value (NRF2; PHAR 10 μM, 2, 4, 8 h) was “not observed” and the “HO-1 levels in MEFs from Nrf2+/+ mice” value (NRF2; PHAR 10 μM, 2, 4, 8 h) was “significant increase in HO-1”. For the same compound, the “mRNA levels of NRF2 targets in Nrf2+/+ and Nrf2−/− MEFs” value (NRF2; PHAR 10 μM, 8 h) was “The same result was obtained”, the “Il6 and Tnfa induction” value (Raw264.7 cells; LPS 100 ng/ml) was “significantly milder induction” and the “NRF2 and HO-1 levels” value (Raw264.7 cells; LPS 100 ng/ml) was “increased NRF2 and HO-1 levels”. For the same compound, the “inflammatory parameters by immunoblot (pre-IL1β, COX2, NOS2) or mRNA (Il1β, Cox2, Nos2)” value (Raw264.7 cells; LPS 100 ng/ml 4 h) was “mitigated the increase in inflammatory parameters”.

Reference: US12590100B2, “Tetrahydro-spiroindoline-pyrrolopyrrole-triones inhibitors of the NRF2-β-TrCP interaction for use in the treatment of fatty liver disease” (Universidad Autonoma De Madrid, priority 2021, dated 2026)
